Where two headings read alike, the source gives them in different places.
How the values were obtained:
Assay type in all cases: in vivo, C57BL/6 mice
[1] = tested on: coronavirus-induced pulmonary fibrosis model (HcoV-OC43); test: Coronavirus-induced pulmonary fibrosis model; settings: 120 mg/kg/d intragastric, 14 days; for Ashcroft scores: coronavirus HcoV-OC43 + bleomycin, lung tissue HE; for IL-1β / IL-6 / NF-κB / TNF-α: serum, HcoV-OC43 + bleomycin, from two weeks after model
From the text: Experimental method: an in-vivo coronavirus-induced pulmonary fibrosis model mice was established: C57BL/6 mice (with weights being 22-25 g) were randomly and evenly divided into a plurality of groups, including blank control group, model group, Nintedanib positive control group, hypoxanthine analogue A group, hypoxanthine analogue B group, hypoxanthine analogue C group, compound 1 group, compound 2 group . . . compound 12 group, with 9 mice in each group. On Day 1, the mice in the blank control group were instilled with normal saline nasally, and the mice in other groups were all infected with HcoV-OC43 coronavirus strains (30 μL) through nasal instillation. On Day 2, the mice received 5 mg/kg bleomycin through tracheas to induce their pulmonary fibrosis. After the model was established for two weeks, the mice in each group were intragastrically administrated for intervention for consecutive 14 days; the mice in blank control group and model group intragastrically received the same dosage of the normal saline as those in drug groups; the mice in Nintedanib positive control group received Nintedanib (120 mg/kg); the mice in hypoxanthine analogue A group, hypoxanthine analogue B group and hypoxanthine analogue C group respectively received hypoxanthine analogue A (120 mg/kg/d), hypoxanthine analogue B (120 mg/kg/d) and hypoxanthine analogue C (120 mg/kg/d); and the mice in compound 1 group, compound 2 group . . . compound 12 group respectively received compound 1 (120 mg/kg/d), compound 2 (120 mg/kg/d) . . . compound 12 (120 mg/kg/d) prepared in example 1. After administration for consecutive 14 days, the mice were observed every day, and their weights and death conditions were recorded. After administration, blood was taken from eyeballs for immediately detecting the expression levels of NF-κB, TNF-α, IL-1 and IL-6 in serum, and lung tissues were taken for HE detection and Ashcroft scoring.

[2] = tested on: influenza B virus-induced pulmonary fibrosis model (influenza B (H7N9) virus); settings: 120 mg/kg/d intragastric, 14 days; for Ashcroft scores: influenza B virus + bleomycin, lung tissue HE; for IL-1β / NF-κB / TNF-α / IL-6: serum, from two weeks after model; for IL-1β / NF-κB / TNF-α: influenza B (H7N9) + bleomycin; for IL-6: influenza B + bleomycin
[3] = tested on: Streptococcus pneumoniae-induced pulmonary fibrosis model; test: Streptococcus pneumoniae-induced pulmonary fibrosis model; settings: for Leucocyte / Lymphocyte / Neutrophil / Ashcroft scores: Streptococcus pneumoniae + bleomycin, 120 mg/kg/d intragastric, 14 days; for Leucocyte / Lymphocyte / Neutrophil: blood, Day 15, 3 times every day, from one week after model; for Ashcroft scores: lung tissue HE staining; for inhibition (anti-inflammatory) effect on leucocytes, neutrophils and lymphocytes in blood: mice with Streptococcus pneumoniae-induced pulmonary fibrosis, result in words
[4] = tested on: bleomycin-induced pulmonary fibrosis model; test: Early pulmonary fibrosis: bleomycin-induced model, dosing from one week after modelling; settings: for Leucocyte / Lymphocyte / Neutrophil / Ashcroft scores: early pulmonary fibrosis, 120 mg/kg/d intragastric, 14 days, from one week after model; for Leucocyte / Lymphocyte / Neutrophil: blood, Day 15, twice every day; for Ashcroft scores: lung tissue HE staining; for inhibition (anti-inflammatory) effect on leucocytes, neutrophils and lymphocytes in blood: mice with early pulmonary fibrosis, result in words

SMILES: COc1ncnc2c1ncn2C(C)C [Hypoxanthine analogue C, reference compound]
- Ashcroft scores ([1]; 120 mg/kg/day): 6.31
- IL-1β ([1]; 120 mg/kg/day): 530.1 pg/mL
- IL-6 ([1]; 120 mg/kg/day): 530.9 pg/mL
- NF-κB ([1]; 120 mg/kg/day): 729.6 pg/mL
- TNF-α ([1]; 120 mg/kg/day): 449.1 pg/mL
- Ashcroft scores ([2]; 120 mg/kg/day): 6.15
- IL-1β ([2]; 120 mg/kg/day): 241.9 pg/mL
- NF-κB ([2]; 120 mg/kg/day): 632.4 pg/mL
- TNF-α ([2]; 120 mg/kg/day): 198.9 pg/mL
- IL-6 ([2]; 120 mg/kg/day): 194.9 pg/mL
- Leucocyte ([3]; 120 mg/kg/day): 149.35 10^9/L
- Lymphocyte ([3]; 120 mg/kg/day): 90.12 10^9/L
- Neutrophil ([3]; 120 mg/kg/day): 82.11 10^9/L
- Ashcroft scores ([3]; 120 mg/kg/day): 6.21
- inhibition (anti-inflammatory) effect on leucocytes, neutrophils and lymphocytes in blood [3]: obviously inferior
- Leucocyte ([4]; 120 mg/kg/day): 50.11 10^9/L
- Lymphocyte ([4]; 120 mg/kg/day): 50.06 10^9/L
- Neutrophil ([4]; 120 mg/kg/day): 37.04 10^9/L
- Ashcroft scores ([4]; 120 mg/kg/day): 5.46
- inhibition (anti-inflammatory) effect on leucocytes, neutrophils and lymphocytes in blood [4]: obviously inferior

SMILES: CCCOc1ncnc2c1ncn2C(C)C [Compound 9]
- Ashcroft scores [1]: 1.31
- IL-1β [1]: 35.9 pg/mL
- IL-6 [1]: 64.3 pg/mL
- NF-κB [1]: 24.4 pg/mL
- TNF-α [1]: 55.1 pg/mL
- Ashcroft scores [2]: 1.23
- IL-1β [2]: 26.9 pg/mL
- NF-κB [2]: 30.8 pg/mL
- TNF-α [2]: 73.8 pg/mL
- IL-6 [2]: 66.1 pg/mL
- Leucocyte [3]: 6.73 10^9/L
- Lymphocyte [3]: 7.11 10^9/L
- Neutrophil [3]: 1.89 10^9/L
- Ashcroft scores [3]: 1.33
- Leucocyte [4]: 4.14 10^9/L
- Lymphocyte [4]: 5.23 10^9/L
- Neutrophil [4]: 1.33 10^9/L
- Ashcroft scores [4]: 1.12

SMILES: CC(=O)Oc1ncnc2c1ncn2C(C)C [Compound 11]
- Ashcroft scores [1]: 1.29
- IL-1β [1]: 35.4 pg/mL
- IL-6 [1]: 63.3 pg/mL
- NF-κB [1]: 25.1 pg/mL
- TNF-α [1]: 52.1 pg/mL
- Ashcroft scores [2]: 1.15
- IL-1β [2]: 26.8 pg/mL
- NF-κB [2]: 31.6 pg/mL
- TNF-α [2]: 73.5 pg/mL
- IL-6 [2]: 65.3 pg/mL
- Leucocyte [3]: 6.29 10^9/L
- Lymphocyte [3]: 6.21 10^9/L
- Neutrophil [3]: 1.81 10^9/L
- Ashcroft scores [3]: 1.28
- Leucocyte [4]: 4.09 10^9/L
- Lymphocyte [4]: 5.20 10^9/L
- Neutrophil [4]: 1.10 10^9/L
- Ashcroft scores [4]: 1.08

SMILES: COc1ncnc2c1ncn2C(C)C [Compound 7]
- Ashcroft scores [1]: 1.49
- IL-1β [1]: 33.2 pg/mL
- IL-6 [1]: 64.3 pg/mL
- NF-κB [1]: 25.6 pg/mL
- TNF-α [1]: 55.9 pg/mL
- Ashcroft scores [2]: 1.20
- IL-1β [2]: 27.9 pg/mL
- NF-κB [2]: 33.4 pg/mL
- TNF-α [2]: 74.1 pg/mL
- IL-6 [2]: 70.3 pg/mL
- Leucocyte ([3]; 120 mg/kg/day): 6.39 10^9/L
- Lymphocyte ([3]; 120 mg/kg/day): 7.72 10^9/L
- Neutrophil ([3]; 120 mg/kg/day): 1.88 10^9/L
- Ashcroft scores ([3]; 120 mg/kg/day): 1.29
- Leucocyte ([4]; 120 mg/kg/day): 4.19 10^9/L
- Lymphocyte ([4]; 120 mg/kg/day): 5.44 10^9/L
- Neutrophil ([4]; 120 mg/kg/day): 1.23 10^9/L
- Ashcroft scores ([4]; 120 mg/kg/day): 1.11

SMILES: CC(C)Oc1ncnc2nc[nH]c12 [Compound 5]
- Ashcroft scores [1]: 1.31
- IL-1β [1]: 37.1 pg/mL
- IL-6 [1]: 64.9 pg/mL
- NF-κB [1]: 25.9 pg/mL
- TNF-α [1]: 52.6 pg/mL
- Ashcroft scores [2]: 1.18
- IL-1β [2]: 28.1 pg/mL
- NF-κB [2]: 31.4 pg/mL
- TNF-α [2]: 76.6 pg/mL
- IL-6 [2]: 66.9 pg/mL
- Leucocyte [3]: 6.75 10^9/L
- Lymphocyte [3]: 7.64 10^9/L
- Neutrophil [3]: 1.82 10^9/L
- Ashcroft scores [3]: 1.25
- Leucocyte [4]: 4.23 10^9/L
- Lymphocyte [4]: 5.60 10^9/L
- Neutrophil [4]: 1.26 10^9/L
- Ashcroft scores [4]: 1.22

SMILES: CC(C)Oc1ncnc2c1ncn2C(C)C [Compound 3]
- Ashcroft scores [1]: 1.03
- IL-1β [1]: 31.3 pg/mL
- IL-6 [1]: 61.7 pg/mL
- NF-κB [1]: 23.7 pg/mL
- TNF-α [1]: 49.9 pg/mL
- Ashcroft scores [2]: 0.98
- IL-1β [2]: 25.8 pg/mL
- NF-κB [2]: 28.8 pg/mL
- TNF-α [2]: 71.8 pg/mL
- IL-6 [2]: 64.1 pg/mL
- Leucocyte [3]: 5.62 10^9/L
- Lymphocyte [3]: 5.77 10^9/L
- Neutrophil [3]: 1.60 10^9/L
- Ashcroft scores [3]: 1.01
- Leucocyte [4]: 4.01 10^9/L
- Lymphocyte [4]: 4.99 10^9/L
- Neutrophil [4]: 0.96 10^9/L
- Ashcroft scores [4]: 0.92

SMILES: CC(C)Oc1ncnc2c1N(C(C)C)CN2C(C)C [Compound 10]
- Ashcroft scores [1]: 1.41
- IL-1β [1]: 37.7 pg/mL
- IL-6 [1]: 68.2 pg/mL
- NF-κB [1]: 25.3 pg/mL
- TNF-α [1]: 56.2 pg/mL
- Ashcroft scores [2]: 1.25
- IL-1β [2]: 27.8 pg/mL
- NF-κB [2]: 31.2 pg/mL
- TNF-α [2]: 74.7 pg/mL
- IL-6 [2]: 65.5 pg/mL
- Leucocyte [3]: 7.01 10^9/L
- Lymphocyte [3]: 7.33 10^9/L
- Neutrophil [3]: 1.99 10^9/L
- Ashcroft scores [3]: 1.38
- Leucocyte [4]: 4.17 10^9/L
- Lymphocyte [4]: 5.27 10^9/L
- Neutrophil [4]: 1.21 10^9/L
- Ashcroft scores [4]: 1.17

SMILES: CCOc1ncnc2c1ncn2C(C)C [Compound 8]
- Ashcroft scores [1]: 1.29
- IL-1β [1]: 36.6 pg/mL
- IL-6 [1]: 66.7 pg/mL
- NF-κB [1]: 28.3 pg/mL
- TNF-α [1]: 56.1 pg/mL
- Ashcroft scores [2]: 1.16
- IL-1β [2]: 27.1 pg/mL
- NF-κB [2]: 31.9 pg/mL
- TNF-α [2]: 73.5 pg/mL
- IL-6 [2]: 66.5 pg/mL
- Leucocyte [3]: 6.68 10^9/L
- Lymphocyte [3]: 8.09 10^9/L
- Neutrophil [3]: 1.94 10^9/L
- Ashcroft scores [3]: 1.31
- Leucocyte [4]: 4.27 10^9/L
- Lymphocyte [4]: 5.31 10^9/L
- Neutrophil [4]: 1.26 10^9/L
- Ashcroft scores [4]: 1.09

SMILES: CC(C)Oc1ncnc2c1ncn2C [Hypoxanthine analogue B, reference compound]
- Ashcroft scores [1]: 6.12
- IL-1β [1]: 560.6 pg/mL
- IL-6 [1]: 522.2 pg/mL
- NF-κB [1]: 730.1 pg/mL
- TNF-α [1]: 454.4 pg/mL
- Ashcroft scores [2]: 6.21
- IL-1β [2]: 240.6 pg/mL
- NF-κB [2]: 627.1 pg/mL
- TNF-α [2]: 190.2 pg/mL
- IL-6 [2]: 193.1 pg/mL
- Leucocyte [3]: 156.11 10^9/L
- Lymphocyte [3]: 91.01 10^9/L
- Neutrophil [3]: 89.86 10^9/L
- Ashcroft scores [3]: 6.14
- inhibition (anti-inflammatory) effect on leucocytes, neutrophils and lymphocytes in blood [3]: obviously inferior
- Leucocyte [4]: 49.97 10^9/L
- Neutrophil [4]: 36.88 10^9/L
- Ashcroft scores [4]: 5.39
- inhibition (anti-inflammatory) effect on leucocytes, neutrophils and lymphocytes in blood [4]: obviously inferior

SMILES: O=c1[nH]cnc2[nH]cnc12 [Hypoxanthine analogue A, reference compound]
- Ashcroft scores [1]: 6.23
- IL-1β [1]: 688.8 pg/mL
- IL-6 [1]: 519.4 pg/mL
- NF-κB [1]: 719.1 pg/mL
- TNF-α [1]: 450.7 pg/mL
- Ashcroft scores [2]: 6.26
- IL-1β [2]: 239.9 pg/mL
- NF-κB [2]: 630.5 pg/mL
- TNF-α [2]: 191.3 pg/mL
- IL-6 [2]: 194.8 pg/mL
- Leucocyte [3]: 155.12 10^9/L
- Lymphocyte [3]: 90.75 10^9/L
- Neutrophil [3]: 89.99 10^9/L
- Ashcroft scores [3]: 6.12
- inhibition (anti-inflammatory) effect on leucocytes, neutrophils and lymphocytes in blood [3]: obviously inferior
- Leucocyte [4]: 52.12 10^9/L
- Lymphocyte [4]: 49.53 10^9/L
- Neutrophil [4]: 41.21 10^9/L
- Ashcroft scores [4]: 5.00
- inhibition (anti-inflammatory) effect on leucocytes, neutrophils and lymphocytes in blood [4]: obviously inferior

— patent US20250188082A1, “Use of Hypoxanthine Compound In Preparation of Drug For Treating Pulmonary Fibrosis” (Sichuan Yiasuo Pharmaceutical Technology Co., Ltd., priority 2022, published 2025)
